According to PubChem BioAssay AID489006 (Sanford-Burnham Center for Chemical Genomics, 2010):
Activity calls are given as the source filed them. The rule behind the calls is not given here.

tested on: Jurkat NF-kB reporter, luminescence; experiment: Jurkat NF-kB signaling inhibitors – cell-based, luminescence, selectivity assay for B-cell receptor NF-kB inhibitor project, dose response (AID 489006)

SMILES | IC50
Cn1c(=O)n(C)c2cc(/C=C3/NC(=O)N(Cc4ccccc4)C3=O)ccc21 | > 80 µM (inactive)
COc1ccc(C(=O)N/N=C/c2ccc(OC)c(CN3CCCc4ccccc43)c2)cc1 | > 80 µM (inactive)
CC(C)(C)c1ccc(-c2noc(CCC(=O)Nc3cccnc3)n2)cc1 | < 0.16 µM
O=C(CN1C(=O)c2ccccc2S1(=O)=O)c1ccc(OC(F)F)cc1 | 3.15 µM
COc1cc(OC)cc(-c2cc3nc(C)c(CCC(=O)NCc4ccccc4)c(C)n3n2)c1 | 2.75 µM
CCOc1cc(/C=N\Nc2nc(Nc3ccccc3)nc(N3CCOCC3)n2)ccc1OC(=O)c1ccco1 | > 80 µM (inactive)
CCCOc1ccc(NC(=O)C(=O)NCCCn2ccnc2)cc1 | > 80 µM (inactive)
O=C(Oc1cccc(/C=N/Nc2nc(Nc3ccccc3)nc(N3CCOCC3)n2)c1)c1ccco1 | > 80 µM (inactive)
Cn1cnc([N+](=O)[O-])c1Sc1ccc([N+](=O)[O-])cc1 | 8.41 µM
O=C(c1cc2nc(-c3ccccc3)cc(-c3ccccc3)n2n1)N1CCN(C(=O)c2ccco2)CC1 | 31 µM (inactive)
CN1CCN(C(=O)c2ccccc2N(Cc2ccccc2)S(=O)(=O)c2ccccc2)CC1 | > 80 µM (inactive)
Cc1ccc(/C=C2\SC(=S)N(CCCC(=O)NNC(=O)c3ccccc3O)C2=O)cc1 | 0.89 µM
N=c1c2c(n(Cc3cccc(Cl)c3)c3c1CCC3)CCCC2 | 27.6 µM (inactive)
O=C(CCCN1C(=O)/C(=C/c2ccccc2Cl)SC1=S)Nc1cccnc1 | 6.58 µM
CCCNC(=O)c1ccc(N2CCC3(CC2)CC(c2cccc(Br)c2)=NO3)c(NC(=O)c2ccc(Cl)c([N+](=O)[O-])c2)c1 | > 80 µM (inactive)
COc1ccc(C(=O)N/N=C/c2sc(N3CCOCC3)nc2-c2ccccc2)cc1OC | 35.5 µM (inactive)
COc1cc(/C=N/Nc2nc(Nc3ccccc3)nc(N3CCOCC3)n2)ccc1OC(=O)c1ccco1 | > 80 µM (inactive)
Cc1nc2cc(-c3ccccc3)nn2c(C)c1CCC(=O)N1CCC2(CC1)OCCO2 | > 80 µM (inactive)
COC(=O)CSc1nnc(-c2sc3ccccc3c2Cl)o1 | 3.43 µM
COc1cc2c3c(c1)c(N=NC(N)=S)c(O)n3C(C)(C)C=C2C | > 80 µM (inactive)
CCOC(=O)c1sc(NC(=O)c2cc(-c3ccccc3C)nc3ccccc23)c(C#N)c1C | > 80 µM (inactive)
Cc1ccc(C)c(OCc2ccc(C(=O)NN)o2)c1 | > 80 µM (inactive)
O=C(NCCC1CCCCN1S(=O)(=O)c1ccc(Cl)cc1)C(=O)NCc1ccncc1 (centres undefined) | > 80 µM (inactive)
N=c1ccn2c(n1)OC1C(O)C(CO)OC12 (centres undefined) | 2.21 µM
Cc1csc(NC(=O)CCc2c(C)nc3cc(-c4ccc(Cl)cc4)nn3c2C)n1 | 0.36 µM

SMILES | IC50
COC(=O)c1c(NC(=O)c2cccc([N+](=O)[O-])c2)sc(C(N)=O)c1C | > 80 µM (inactive)
CCc1ccc2[nH]c3nc(N/N=C/c4cccc(O)c4)nnc3c2c1 | > 80 µM (inactive)
CCC(CO)Oc1cc(NCc2ccccc2O)c2ncn(C(C)C)c2c1 (centres undefined) | > 80 µM (inactive)
Cc1nn(-c2ccc(N3CCCCC3)nn2)c(C)c1CCC(=O)Nc1ccccc1F | 71.1 µM (inactive)
COc1ccc(-c2noc(N3CCC(C(=O)Nc4cccc(OC)c4)CC3)n2)cc1 | > 80 µM (inactive)
COc1ccc(C(=O)Nc2nnc(SCC(=O)Nc3ccc(NC(C)=O)cc3)s2)c(OC)c1 | > 80 µM (inactive)
CC1CN(S(=O)(=O)c2ccc(C(=O)Nc3nc(-c4cc5ccccc5o4)cs3)cc2)CC(C)O1 (centres undefined) | 49.9 µM (inactive)
Cc1ccc(C(=O)C[n+]2cc(-c3ccc(C)cc3)n3c2CCCCC3)cc1 | 8.37 µM
CCOc1ccc(-n2c(-c3ccccc3)c[n+]3c2CCCCC3)cc1 | > 80 µM (inactive)
O=C(CCCN1C(=O)/C(=C/c2ccccc2Cl)SC1=S)NNC(=O)c1ccccc1Cl | 1.76 µM
CCN1C(=O)Nc2cccc3cccc1c23 | 36.2 µM (inactive)
O=C(Oc1cccc(/C=N/Nc2nc(N3CCOCC3)nc(N3CCOCC3)n2)c1)c1ccco1 | > 80 µM (inactive)
Cc1ccc(-c2cc(C(=O)NCCCN3CCOCC3)no2)cc1 | 15.2 µM
COc1ccc(OCc2cccc(C(=O)Nc3cc(C)on3)c2)cc1 | 3.77 µM
CCc1ccc(/C=C2\SC(=S)N(CCC(=O)Nc3cc(C)on3)C2=O)cc1 | 4.06 µM
Cc1c(CCO)c(=O)oc2n[nH]c(-c3ccccc3)c12 | > 80 µM (inactive)
COc1ccc(/C=C2\SC(=S)N(CCC(=O)Nc3ccc(C(=O)O)cc3)C2=O)cc1 | > 80 µM (inactive)
COc1cc(-c2[nH]nc3c2C(c2ccco2)C(C#N)=C(N)O3)cc(OC)c1OC (centres undefined) | 61 µM (inactive)
CCC(C)[C@H](N)c1nnc(SCC(=O)c2ccc(Cl)cc2)o1 (some centres undefined) | 72.9 µM (inactive)
COc1ccc(C(=O)Nc2ccc(OC)c([N+](=O)[O-])c2)cc1Br | > 80 µM (inactive)
COc1ccc(-c2ccc(F)cc2)cc1[C@H]1[C@H]2C=CC[C@@H](C)[C@@H]2C(=O)N1Cc1ccccc1 | > 80 µM (inactive)
C[C@H]1CCC/C=C/C2C[C@H](O)CC2[C@H](O)/C=C/C(=O)O1 (some centres undefined) | > 80 µM (inactive)
CCN1CCN(C(=O)CSc2cc(=O)n(CC)c3ccccc23)CC1 | > 80 µM (inactive)
O=[N+]([O-])c1ccc(Sc2cc[n+]([O-])c3ccccc23)c([N+](=O)[O-])c1 | 6.03 µM
COc1ccc(CC(=O)Nc2cccc(-c3ccc4nnc(C)n4n3)c2)cc1 | > 80 µM (inactive)

SMILES | IC50
COc1ccc(C(=O)Nc2nnc(Cc3cccs3)s2)cc1OC | > 80 µM (inactive)
COCCCNC(=O)COc1ccc(-c2nccc(-c3ccccn3)n2)cc1 | 8.68 µM
Cn1c(=O)cc(OCCCC(=O)NCc2ccccn2)c2ccccc21 | > 80 µM (inactive)
CCc1ccc(-c2nnn(CCC(=O)OC)n2)cc1 | 1.78 µM
CN1C(=O)CC(c2ccco2)Sc2ccccc21 (centres undefined) | > 80 µM (inactive)
Cc1[nH]c2ccccc2c1/C=N/Nc1nc(Nc2ccc(F)cc2)nc(N2CCOCC2)n1 | 20.9 µM (inactive)
Cc1ccc(/C=C2\SC(=S)N(CCCC(=O)Nc3cc(C)on3)C2=O)cc1 | 17.7 µM
O=c1c(C=NCCCO)c(-c2ccccc2)[nH]n1-c1nc2ccccc2s1 | 3.46 µM
N#Cc1ccccc1COc1ccc(/C=C/C(=O)O)cc1 | 1.48 µM
N=c1ccn(Cc2ccccc2Cl)cc1 | > 80 µM (inactive)
O=C(O)CCSc1ncnc2sc(-c3ccccc3)cc12 | 1.07 µM
COc1cccc(N2CCN(c3ncnc4c3[nH]c3ccc(F)cc34)CC2C)c1 (centres undefined) | 1.31 µM
Cc1cccc(C(=O)Nc2ccc(CC(=O)O)cc2)c1 | 7.41 µM
N=c1ccn(Cc2c(Cl)cccc2Cl)cc1 | > 80 µM (inactive)
Cn1c(=O)cc(Nc2ccccc2)c2c(=O)n(-c3ccccc3)c(=O)n(-c3ccccc3)c21 | 71.9 µM (inactive)
CC(C)c1ccc(/C=C2\SC(=S)N(CCC(=O)N3CCCCC3CCO)C2=O)cc1 (centres undefined) | 0.33 µM
CCc1ccc(-c2nc(CSCC(=O)NC3CC3)c(C)o2)cc1 | 38.5 µM (inactive)
CCOc1ccc(-c2cc(CCCC(=O)NCCCOC)no2)cc1 | > 80 µM (inactive)
COc1ccccc1/C=C1\SC(=S)N(CCC(=O)NC2=NCCS2)C1=O | 28.3 µM (inactive)
O=C(CCl)N(c1ccc(Cl)cc1)c1c[nH]c2ccccc12 | 0.85 µM
OCCN1CCN(C(=S)c2ccc(-c3ccccc3)cc2)CC1 | 7.07 µM
COc1ccc(-c2ccoc2)cc1[C@H]1[C@H]2C=CC[C@@H](C)[C@@H]2C(=O)N1Cc1ccccc1 | 50.4 µM (inactive)
Cc1c(NC(=O)/C=C/c2cn(-c3ccccc3)nc2-c2ccccc2)c(=O)n(-c2ccccc2)n1C | > 80 µM (inactive)
Cc1nc2cc(-c3cccc(F)c3)nn2c(C)c1CCC(=O)NC(C)CCc1ccco1 (centres undefined) | 4.14 µM
Cn1c(=O)cc(SCC(=O)N2CCCC2)c2cc(Cl)ccc21 | > 80 µM (inactive)

SMILES | IC50
CC1CC(C)CN(S(=O)(=O)c2ccc(C(=O)NCCCn3ccnc3)cc2)C1 (centres undefined) | 54.6 µM (inactive)
Cc1cccn2c(=O)c3cc(C(=O)NC4CCCCC4)c(=N)n(CCN4CCOCC4)c3nc12 | > 80 µM (inactive)
COc1ccc(-c2nc(CSCC(=O)NCc3ccco3)c(C)o2)cc1 | 66.8 µM (inactive)
COc1ccc(/C=C2\SC(=S)N(CCC(=O)Nc3cccc(O)c3)C2=O)cc1 | > 80 µM (inactive)
Cn1c(=O)n(C)c2cc(C(=O)Nc3ccc4c(c3)OCO4)ccc21 | > 80 µM (inactive)
CCN1C(=O)c2cccc3c(S(=O)(=O)N4CCC(C)CC4)ccc1c23 | > 80 µM (inactive)
CCc1ccc(/C=C2/SC(=S)N(CCC(=O)Nc3cccnc3)C2=O)cc1 | > 80 µM (inactive)
CC(C)Oc1ccc(C(=O)Nc2ccc(N(C)C)cc2)cc1 | > 80 µM (inactive)
CCOc1ccc(S(=O)(=O)NCc2ccncc2)cc1NC(=O)c1ccccc1 | > 80 µM (inactive)
CCOc1ccc(-c2nnc(SCC(=O)Nc3cc(C)on3)o2)cc1 | 1.52 µM
CCN(CC)C(=O)c1ccc(S(=O)(=O)Cc2ccc(C)cc2)c([N+](=O)[O-])c1 | 7.08 µM
Cn1nc(-c2ccc(N3CCOCC3)c(NS(=O)(=O)c3ccccc3)c2)c2ccccc2c1=O | > 80 µM (inactive)
CCN1C(=O)c2cccc3c(NC(=O)c4cccc(N5C(=O)CCC5=O)c4)ccc1c23 | > 80 µM (inactive)
COC(=O)c1c(-c2ccc(N(C)C)cc2)sc2ccc(OC)cc12 | > 80 µM (inactive)
CCOc1ccc(/C=C2\SC(=S)N(CCC(=O)Nc3cccc(C(=O)O)c3)C2=O)cc1 | > 80 µM (inactive)
N=c1c2c(n(Cc3ccc(Cl)cc3Cl)c3c1CCC3)CCCC2 | 16.2 µM
CCn1c(=O)cc(SCC(=O)N2CCOCC2)c2ccccc21 | > 80 µM (inactive)
CC1CCc2c(sc3nc(C(C)(C)C)nc(N4CCN(C(=O)CCl)CC4)c23)C1 (centres undefined) | 1.27 µM
Cc1[nH]c2ccccc2c1/C=N/Nc1nc(Nc2ccccc2)nc(N2CCOCC2)n1 | 35.2 µM (inactive)
COc1ccc(-c2noc(CCCC(=O)Nc3ccc(C(N)=O)cc3)n2)cc1 | 11.9 µM
Cc1nc(Nc2c(Cl)cccc2Cl)sc1C(=O)Nc1ccccc1 | > 80 µM (inactive)
CCN(CC)c1ccc2cc(NC(=O)CCC(=O)O)c(=O)oc2c1 | 0.46 µM
O=C(CCl)Nc1ccccc1Sc1ccccc1 | 14.1 µM
Cc1ccc(/C=C2\SC(=S)N(CCC(=O)NNC(=O)c3ccncc3)C2=O)cc1 | > 80 µM (inactive)
